Measurements: ChEMBL document CHEMBL3286212, “Synthesis of isoquinolinone-based tricycles as novel poly(ADP-ribose) polymerase-1 (PARP-1) inhibitors” (Bioorg Med Chem Lett, 2014)

Experiments:
[1] = Cytotoxicity against BRCA1-deficient human MDA-MB-436 cells by sulforhodamine B assay; type: functional
[2] = Cytotoxicity against BRCA2-deficient Chinese hamster VC8 cells by sulforhodamine B assay; type: functional; conditions: Cricetulus griseus, V-C8
[3] = target: Poly [ADP-ribose] polymerase 1 (Homo sapiens, UniProt P09874); test: Inhibition of human recombinant PARP-1 after 1 hr by ELISA
Poly [ADP-ribose] polymerase 1, sequence (P09874 whole entry): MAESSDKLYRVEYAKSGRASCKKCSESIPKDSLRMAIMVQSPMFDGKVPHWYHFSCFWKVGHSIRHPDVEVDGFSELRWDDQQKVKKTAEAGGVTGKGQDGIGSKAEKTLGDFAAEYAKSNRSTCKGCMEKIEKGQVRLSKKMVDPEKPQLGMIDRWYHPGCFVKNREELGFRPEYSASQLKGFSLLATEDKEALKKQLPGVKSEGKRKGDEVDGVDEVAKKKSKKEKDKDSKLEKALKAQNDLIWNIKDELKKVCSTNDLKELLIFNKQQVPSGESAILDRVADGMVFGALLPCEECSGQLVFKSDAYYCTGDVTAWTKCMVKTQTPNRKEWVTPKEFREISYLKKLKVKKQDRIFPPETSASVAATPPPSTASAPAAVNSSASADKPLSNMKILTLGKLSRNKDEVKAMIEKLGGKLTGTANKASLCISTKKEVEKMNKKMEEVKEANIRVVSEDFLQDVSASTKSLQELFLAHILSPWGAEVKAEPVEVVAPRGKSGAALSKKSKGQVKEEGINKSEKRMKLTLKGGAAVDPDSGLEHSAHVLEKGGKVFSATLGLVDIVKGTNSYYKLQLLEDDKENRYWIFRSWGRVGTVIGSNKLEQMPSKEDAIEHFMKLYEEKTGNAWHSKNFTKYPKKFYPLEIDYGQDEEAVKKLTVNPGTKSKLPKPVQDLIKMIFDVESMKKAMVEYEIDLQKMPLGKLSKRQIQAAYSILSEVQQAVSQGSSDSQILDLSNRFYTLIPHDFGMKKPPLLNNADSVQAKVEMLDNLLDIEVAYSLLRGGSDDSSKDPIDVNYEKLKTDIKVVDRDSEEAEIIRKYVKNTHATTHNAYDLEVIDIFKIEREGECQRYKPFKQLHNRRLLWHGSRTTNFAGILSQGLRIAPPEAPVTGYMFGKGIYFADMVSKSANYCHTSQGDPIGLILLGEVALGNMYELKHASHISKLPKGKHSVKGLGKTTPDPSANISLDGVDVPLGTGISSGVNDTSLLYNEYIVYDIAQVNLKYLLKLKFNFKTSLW

[4] = Cytotoxicity against Chinese hamster V79 cells by sulforhodamine B assay; type: cell-based, Cricetulus griseus

| Compound | CC50 [1] [nM] | CC50 [2] [nM] | IC50 [3] [nM] | CC50 [4] [nM] |
| --- | --- | --- | --- | --- |
| Cc1c(C(=O)N2CCC(N(C)C)CC2)sc2c1[nH]c(=O)c1ccccc12 | > 10000 | > 10000 | 29 | > 10000 |
| Cn1c(C(=O)NCCCN2CCOCC2)cc2[nH]c(=O)c3ccccc3c21 |  |  | 100 |  |
| COc1cccc(CN2CCN(C(=O)c3cc4[nH]c(=O)c5ccccc5c4n3C)CC2)c1 |  |  | 400 |  |
| Cc1c(C(=O)NCCN2CCOCC2)sc2c1[nH]c(=O)c1ccccc12 |  |  | 83 |  |
| Cn1c(C(=O)N2CCN(Cc3ccc([N+](=O)[O-])cc3)CC2)cc2[nH]c(=O)c3ccccc3c21 |  |  | > 10000 |  |
| Cc1c(C(=O)NCCN2CCN(C)CC2)sc2c1[nH]c(=O)c1ccccc12 |  |  | 284 |  |
| CN1CCCN(C(=O)c2cc3[nH]c(=O)c4ccccc4c3n2C)CC1 |  |  | 200 |  |
| Cc1c(C(=O)N2CCN(C(C)C)CC2)sc2c1[nH]c(=O)c1ccccc12 | > 10000 | > 10000 | 86 | > 10000 |
| Cn1c(C(=O)N2CCNCC2)cc2[nH]c(=O)c3ccccc3c21 |  |  | 44 |  |
| Cn1c(C(=O)N2CCCNCC2)cc2[nH]c(=O)c3ccccc3c21 | 1190 | > 10000 | 100 | > 10000 |
| CN1CCN(C(=O)c2cc3c(n2C)-c2ccccc2C(=O)NC3)CC1 |  |  | > 10000 |  |
| CCN1CCN(C(=O)c2sc3c([nH]c(=O)c4ccccc43)c2C)CC1 | 3480 | > 10000 | 79 | > 10000 |
| Cn1c(C(=O)NCCN2CCCC2)cc2c1-c1ccccc1C(=O)NC2 |  |  | 8170 |  |
| Cn1c(C(=O)N2CCCNCC2)c(Cl)c2[nH]c(=O)c3ccccc3c21 |  |  | 100 |  |
| Cn1c(C(=O)N2CCCNCC2)c(Br)c2[nH]c(=O)c3ccccc3c21 |  |  | 100 |  |
| CN1CCCN(C(=O)c2cc3c(n2C)-c2ccccc2C(=O)NC3)CC1 |  |  | 10000 |  |
| CN1CCN(C(=O)c2cc3[nH]c(=O)c4ccccc4c3n2C)CC1 |  |  | 119 |  |
| CN(C)C1CCN(C(=O)c2cc3c(n2C)-c2ccccc2C(=O)NC3)CC1 |  |  | 6430 |  |
| Cc1c(C(=O)NCCN2CCCC2)sc2c1[nH]c(=O)c1ccccc12 |  |  | 248 |  |
| Cn1c(C(=O)N2CCN(Cc3ccccc3)CC2)cc2[nH]c(=O)c3ccccc3c21 |  |  | 860 |  |
| Cn1c(C(=O)N2CC=C(c3ccc(F)cc3)CC2)cc2c1-c1ccccc1C(=O)NC2 |  |  | 1670 |  |
| CN(C)CCNC(=O)c1cc2[nH]c(=O)c3ccccc3c2n1C |  |  | 1100 |  |
| O=C(c1cc(Cc2n[nH]c(=O)c3ccccc23)ccc1F)N1CCN(C(=O)C2CC2)CC1 [OLAPARIB] | 16.9 | 468 |  | 8980 |
| CC(C)S(=O)(=O)N1CCN(C(=O)c2cc3[nH]c(=O)c4ccccc4c3n2C)CC1 |  |  | 600 |  |
| CC(C)N1CCN(C(=O)c2cc3[nH]c(=O)c4ccccc4c3n2C)CC1 |  |  | 830 |  |
| Cc1c(C(=O)N2CC=C(c3ccc(F)cc3)CC2)sc2c1[nH]c(=O)c1ccccc12 |  |  | 133 |  |
| CN(C)CCCNC(=O)c1cc2[nH]c(=O)c3ccccc3c2n1C |  |  | 300 |  |
| Cc1c(C(=O)N2CCN(C)CC2)sc2c1[nH]c(=O)c1ccccc12 |  |  | 231 |  |
